Where “and” joins values, the source holds several entries; their conditions need not be identical. Identical values can stand only once. Counter-ions that a name gives are not always drawn. Where a SMILES comes first, the peptide text is derived from it.
Experiments:
IGF-II mRNA = test: IGF-II expression assay, qPCR detection, in primary spinal cord cultures; type: cell-based, mice; conditions: for induction of IGF-II expression (in words): antihypertensive agents, FIGS. 5 and 6; for induction of IGF-II expression (fold induction) / IGF-II inducing activity (in words): NSAID series, FIGS. 3 and 4
Procedure: Quantitative PCR utilizing SYBR green I (Molecular Probes, Eugene, Oreg.) or specific Taqman probes was used to confirm differential gene expression. RNA extracted from 100-200 LCMed motor neurons were reverse transcribed using Superscript III (Invitrogen). 2 μl of diluted cDNA was amplified (DNA Engine Opticon real-time PCR machine, Bio-Rad), in […] reactions containing 900 nM primer and 250 nM probe in Taqman Universal Master Mix (Applied Biosystems). Reactions were run in duplicate and each gene analyzed in at least three different animals. Reaction parameters were as follows: 50° C. for 2 min, 95° C. for 10 min, and 40 cycles of 95° C. for 15 s and 60° C. for 1 min. Controls lacking template and/or Superscript were included. The absolute copy number for each gene was quantified using a standard curve from human GAPDH plasmid and amplified products were normalized against rat GAPDH expression. Primers and probes (Integrated DNA technologies) were as follows: rat GAPDH: Forward primer: […]
Two libraries of FDA-approved drugs (NINDS and Harvard LDDN) were screened for their ability to up-regulate IGF-II expression. Candidate compounds were screened in an IGF-II expression assay using a qPCR detection methodology in primary spinal cord cultures or using a luciferase reporter assay. In the initial screening, therapeutic candidates were identified as those that increased IGF-II expression by at least 2-fold. […]

IGF-II protein = IGF-II protein expression in primary spinal cord cultures, quantitated by ELISA; type: cell-based, mice
From the text: Further results of the library screening identified the following therapeutic agents as having a significant inducing effect on IGF-II expression in primary spinal cord cultures and are useful for treating motor neuron disease. Protein expression was quantitated by ELISA.

## Clc1ccc2c(c1)C(N1CCNCC1)=Nc1ccccc1O2 [Amoxapine]
IGF-II mRNA
  Fold Increase in IGF-II mRNA Expression: 4.1 ± 2.3 fold

## CN(C)CCCC1(c2ccc(F)cc2)OCc2cc(C#N)ccc21 (centres unmarked) [Citalopram]
IGF-II mRNA
  Fold Increase in IGF-II mRNA Expression: 3.4 fold

## CCOC(=O)[C@@](C)(N)Cc1ccc(O)c(O)c1 [Methyldopate HCl]
IGF-II mRNA
  Fold Increase in IGF-II mRNA Expression: 4.3 fold
  induction of IGF-II expression (in words): most active

## O=C(O)Cc1ccccc1Nc1c(Cl)cccc1Cl [Diclofenac]
IGF-II mRNA
  Fold Increase in IGF-II mRNA Expression: 4.0 ± 1.1 fold
  induction of IGF-II expression (fold induction): 3.4±1.3 fold
IGF-II protein
  Fold Increase in IGF-II Protein Expression: 1.1 fold
  IGF-II Protein Expression (pg/ml in media): (112 ± 29) pg/ml

## Clc1cccc(Cl)c1N=C1NCCN1 [clonidine HCl]
IGF-II mRNA
  induction of IGF-II expression (in words): most active

## Cc1cc2nc3c(=O)[nH]c(=O)nc-3n(C[C@H](O)[C@H](O)[C@H](O)CO)c2cc1C [Riboflavin]
IGF-II mRNA
  Fold Increase in IGF-II mRNA Expression: 4.1 ± 1.9 fold
IGF-II protein
  Fold Increase in IGF-II Protein Expression: 1.5 fold
  IGF-II Protein Expression (pg/ml in media): (205 ± 42) pg/ml

## CNCCC(Oc1ccc(C(F)(F)F)cc1)c1ccccc1 (centres unmarked) [Fluoxetine]
IGF-II mRNA
  Fold Increase in IGF-II mRNA Expression: 4.3 ± 2.3 fold

## CN1CCC[C@@H]1Cc1c[nH]c2ccc(CCS(=O)(=O)c3ccccc3)cc12 [Eletriptan HBr]
IGF-II mRNA
  Fold Increase in IGF-II mRNA Expression: 4.3 fold

## Cc1onc(-c2c(Cl)cccc2Cl)c1C(=O)N[C@@H]1C(=O)N2[C@@H]1SC(C)(C)[C@@H]2C(=O)O [Dicloxacillin sodium]
IGF-II mRNA
  Fold Increase in IGF-II mRNA Expression: 3.2 fold

## CN1CCCC1c1cccnc1.O=C(O)C(O)C(O)C(=O)O.O=C(O)C(O)C(O)C(=O)O (centres unmarked) [Nicotine ditartrate]
IGF-II mRNA
  Fold Increase in IGF-II mRNA Expression: 4.8 ± 0.3 fold
IGF-II protein
  Fold Increase in IGF-II Protein Expression: 1.5 fold
  IGF-II Protein Expression (pg/ml in media): (205 ± 26) pg/ml

## NC(=O)c1cccnc1 [Niacinamide]
IGF-II mRNA
  Fold Increase in IGF-II mRNA Expression: 5.0 ± 3.6 fold
IGF-II protein
  Fold Increase in IGF-II Protein Expression: 1.1 fold
  IGF-II Protein Expression (pg/ml in media): (151 ± 45) pg/ml

## CCCCNc1cc(C(=O)O)cc(S(N)(=O)=O)c1Oc1ccccc1 [bumetanide]
IGF-II mRNA
  induction of IGF-II expression (in words): most active

## COc1ccc(-c2cc(C(F)F)nn2-c2ccc(S(N)(=O)=O)cc2)cc1F [deracoxib]
IGF-II mRNA
  IGF-II inducing activity (in words): strong IGF-II inducing activity

## CN1CCCC(n2nc(Cc3ccc(Cl)cc3)c3ccccc3c2=O)CC1 (centres unmarked) [Azelastine HCl]
IGF-II mRNA
  Fold Increase in IGF-II mRNA Expression: 3.2 fold

## COCCCOc1cc(C[C@@H](C[C@H](N)[C@@H](O)C[C@H](C(=O)NCC(C)(C)C(N)=O)C(C)C)C(C)C)ccc1OC [aliskiren hemifumarate]
IGF-II mRNA
  induction of IGF-II expression (in words): most active

## Cc1cc2c(s1)Nc1ccccc1N=C2N1CCN(C)CC1 [Olanzapine]
IGF-II mRNA
  Fold Increase in IGF-II mRNA Expression: 4.0 fold

## Cc1cnc(NC(=O)C2=C(O)c3ccccc3S(=O)(=O)N2C)s1 [Meloxicam sodium]
IGF-II mRNA
  Fold Increase in IGF-II mRNA Expression: 4.1 fold

## CNCC[C@@H](Oc1ccccc1C)c1ccccc1 [Atomoxetine HCl]
IGF-II mRNA
  Fold Increase in IGF-II mRNA Expression: 4.8 fold

## NNc1nncc2ccccc12 [Hydralazine HCl]
IGF-II mRNA
  Fold Increase in IGF-II mRNA Expression: 6.3 fold
  induction of IGF-II expression (in words): most active

## Nc1nc(/C(=C/CC(=O)O)C(=O)N[C@@H]2C(=O)N3C(C(=O)O)=CCS[C@H]23)cs1 [Ceftibuten]
IGF-II mRNA
  Fold Increase in IGF-II mRNA Expression: 3.9 ± 2.7 fold

## CC(C(=O)O)c1ccc2c(c1)[nH]c1ccc(Cl)cc12 (centres unmarked) [Carboprofen]
IGF-II mRNA
  Fold Increase in IGF-II mRNA Expression: 2.4 fold
  IGF-II inducing activity (in words): strong IGF-II inducing activity

## Cc1onc(-c2ccccc2)c1-c1ccc(S(N)(=O)=O)cc1 [valdecoxib]
IGF-II mRNA
  IGF-II inducing activity (in words): strong IGF-II inducing activity

## COC(=O)C1=C(C)NC(C)=C(C(=O)OC)C1c1ccccc1[N+](=O)[O-] [Nifedipine]
IGF-II mRNA
  Fold Increase in IGF-II mRNA Expression: 6.6 ± 6.2 fold

## Cc1ncc(C[n+]2csc(CCO[P@](=O)(O)OP(=O)(O)O)c2C)c(N)n1 [Thiamine pyrophosphate]
IGF-II mRNA
  Fold Increase in IGF-II mRNA Expression: 4.1 ± 2.1 fold
IGF-II protein
  Fold Increase in IGF-II Protein Expression: 0.9 fold
  IGF-II Protein Expression (pg/ml in media): (118 ± 42) pg/ml

## CCCc1nc(C(C)(C)O)c(C(=O)OCc2oc(=O)oc2C)n1Cc1ccc(-c2ccccc2-c2nnn[nH]2)cc1 [Olmesartan medoxomil]
IGF-II mRNA
  Fold Increase in IGF-II mRNA Expression: 5.2 fold
  induction of IGF-II expression (in words): most active

## CC(=O)OCC(=O)[C@@]1(O)[C@H](C)C[C@H]2[C@@H]3CCC4=CC(=O)C=C[C@]4(C)[C@@]3(F)[C@@H](O)C[C@@]21C [Dexamethasone acetate]
IGF-II mRNA
  Fold Increase in IGF-II mRNA Expression: 3.8 fold

## NC(=O)C[S+]([O-])C(c1ccccc1)c1ccccc1 (centres unmarked) [Modafinil]
IGF-II mRNA
  Fold Increase in IGF-II mRNA Expression: 4.4 ± 4.0 fold
IGF-II protein
  Fold Increase in IGF-II Protein Expression: 1.4 fold
  IGF-II Protein Expression (pg/ml in media): (213 ± 22) pg/ml

## terbutaline hemisulfate
IGF-II mRNA
  induction of IGF-II expression (in words): most active

## CCCN(CCC)CCc1cccc2c1CC(=O)N2 [Ropinirole]
IGF-II mRNA
  Fold Increase in IGF-II mRNA Expression: 4.5 ± 3.0 fold

## CS(=O)(=O)c1ccc([C@@H](O)[C@@H](CO)NC(=O)C(Cl)Cl)cc1 [Thiamphenicol]
IGF-II mRNA
  Fold Increase in IGF-II mRNA Expression: 3.5 fold

## COCCCC/C(=N\OCCN)c1ccc(C(F)(F)F)cc1 [Fluvoxamine maleate]
IGF-II mRNA
  Fold Increase in IGF-II mRNA Expression: 4.8 fold

## Nc1c2c(nc3ccccc13)CCCC2 [Tacrine HCl]
IGF-II mRNA
  Fold Increase in IGF-II mRNA Expression: 3.7 fold

## CC(C)[C@H](N)C(=O)OCCOCn1cnc2c(=O)[nH]c(N)nc21 [Valacyclovir HCl]
IGF-II mRNA
  Fold Increase in IGF-II mRNA Expression: 4.2 ± 1.8 fold
IGF-II protein
  Fold Increase in IGF-II Protein Expression: 1.5 fold
  IGF-II Protein Expression (pg/ml in media): (232 ± 4) pg/ml

## COc1cc2c(cc1OC)C(=O)C(CC1CCN(Cc3ccccc3)CC1)C2 (centres unmarked) [donepezil HCl]
IGF-II mRNA
  induction of IGF-II expression (in words): most active

## COc1ccccc1OCC(O)CO (centres unmarked) [Guaifenesin]
IGF-II mRNA
  Fold Increase in IGF-II mRNA Expression: 2.9 fold

## COc1ccc2[nH]c([S+]([O-])Cc3ncc(C)c(OC)c3C)nc2c1 (centres unmarked) [Omeprazole]
IGF-II mRNA
  Fold Increase in IGF-II mRNA Expression: 5.9 fold

## COc1ccc(Cl)cc1C(=O)NCCc1ccc(S(=O)(=O)NC(=O)NC2CCCCC2)cc1 [Glyburide]
IGF-II mRNA
  Fold Increase in IGF-II mRNA Expression: 4.9 fold

## CC(C)NCC(O)COc1ccc(CC(N)=O)cc1 (centres unmarked) [atenolol]
IGF-II mRNA
  induction of IGF-II expression (in words): most active

## O=C(O)c1cc(-c2ccc(F)cc2F)ccc1O [diflunisal]
IGF-II mRNA
  IGF-II inducing activity (in words): strong IGF-II inducing activity

## C[N+](C)(C)C[C@H](O)CC(=O)[O-] [Levocarnitine]
IGF-II mRNA
  Fold Increase in IGF-II mRNA Expression: 5.7 ± 1.1 fold
IGF-II protein
  Fold Increase in IGF-II Protein Expression: 1.7 fold
  IGF-II Protein Expression (pg/ml in media): (258 ± 7) pg/ml

## CC(C(=O)O)c1ccc(-c2ccccc2)c(F)c1 (centres unmarked) [Flurbiprofen]
IGF-II mRNA
  Fold Increase in IGF-II mRNA Expression: 2.5 fold and 2.5 ± 0.5 fold
  induction of IGF-II expression (fold induction): 2.5±0.5 fold
IGF-II protein
  Fold Increase in IGF-II Protein Expression: 1.2 fold
  IGF-II Protein Expression (pg/ml in media): (121 ± 27) pg/ml

## O=C(O)COCCN1CCN(C(c2ccccc2)c2ccc(Cl)cc2)CC1 (centres unmarked) [Cetirizine HCl]
IGF-II mRNA
  Fold Increase in IGF-II mRNA Expression: 5.8 fold

## CCC(=O)NCC[C@@H]1CCc2ccc3c(c21)CCO3 [Ramelteon]
IGF-II mRNA
  Fold Increase in IGF-II mRNA Expression: 3.4 ± 1.3 fold
IGF-II protein
  Fold Increase in IGF-II Protein Expression: 1.5 fold
  IGF-II Protein Expression (pg/ml in media): (201 ± 10) pg/ml

## CC(C)(C)NC[C@H](O)COc1nsnc1N1CCOCC1 [timolol maleate]
IGF-II mRNA
  induction of IGF-II expression (in words): most active

## COc1ccc([C@@H]2Sc3ccccc3N(CCN(C)C)C(=O)[C@@H]2OC(C)=O)cc1 [Diltiazem HCl]
IGF-II mRNA
  Fold Increase in IGF-II mRNA Expression: 4.3 fold
  induction of IGF-II expression (in words): most active

## CN(C)CCCN1c2ccccc2Sc2ccc(Cl)cc21 [Chlorpromazine]
IGF-II mRNA
  Fold Increase in IGF-II mRNA Expression: 3.4 fold

## CC(COc1ccccc1)N(CCCl)Cc1ccccc1 (centres unmarked) [phenoxybenzamine HCl]
IGF-II mRNA
  induction of IGF-II expression (in words): most active

## N[C@@H](Cc1ccc(O)c(O)c1)C(=O)O [Levodopa]
IGF-II mRNA
  Fold Increase in IGF-II mRNA Expression: 3.5 fold

## Cc1ccc(-c2nc3ccc(C)cn3c2CC(=O)N(C)C)cc1 [Zolpidem]
IGF-II mRNA
  Fold Increase in IGF-II mRNA Expression: 6.1 fold

## COC(=O)[C@H](Cc1ccccc1)NC(=O)[C@@H](N)CC(=O)O [Aspartame] (H-Asp-Phe-OMe)
IGF-II mRNA
  Fold Increase in IGF-II mRNA Expression: 5.5 ± 0.7 fold
IGF-II protein
  Fold Increase in IGF-II Protein Expression: 1.2 fold
  IGF-II Protein Expression (pg/ml in media): (175 ± 1.7) pg/ml

## COc1ccccc1OCCNCC(O)COc1cccc2[nH]c3ccccc3c12 (centres unmarked) [carvedilol]
IGF-II mRNA
  induction of IGF-II expression (in words): most active

Source: US20130274235A1, “TREATMENT OF MOTOR NEURON DISEASE” (THE GENERAL HOSPITAL CORPORATION, priority 2010, published 2013)
